According to PubChem BioAssay AID248 (DTP/NCI, 2004):
Where “and” joins values, the source holds several entries; their conditions need not be identical. Equal values may be shown once. Toxic doses and inconclusive results are not listed. Cut-off read from the data, not from the text of the source: active = T/C of 150% or more; inactive = T/C below 125%.

Test system: L1210 leukemia ip in BDF1 mice, survival T/C
Experiment: NCI In Vivo Anticancer Drug Screen. Data for tumor model L1210 Leukemia (intraperitoneal) in B6D2F1 (BDF1) mice
Settings: endpoint: mean survival time, higher = longer survival
Summary of the method: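 Transplantable tumor model; survival measured in treated vs vehicle control mice. Value = treated/control.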

[1] = dose: 100.0 mg/kg/injection, schedule: Q01DX001 (ip), vehicle: carboxymethylcellulose (CMC)
[2] = dose: 200.0 mg/kg/injection, schedule: Q01DX001 (ip), vehicle: carboxymethylcellulose (CMC)
[3] = dose: 400.0 mg/kg/injection, schedule: Q01DX001 (ip), vehicle: carboxymethylcellulose (CMC)
[4] = dose: 100.0 mg/kg/injection, schedule: Q04DX002 (ip), vehicle: Klucel (hydroxypropylcellulose) (HPC)
[5] = dose: 200.0 mg/kg/injection, schedule: Q04DX002 (ip), vehicle: Klucel (hydroxypropylcellulose) (HPC)
[6] = dose: 400.0 mg/kg/injection, schedule: Q04DX002 (ip), vehicle: Klucel (hydroxypropylcellulose) (HPC)
[7] = dose: 100.0 mg/kg/injection, schedule: Q04DX003 (ip), vehicle: saline with Tween-80
[8] = dose: 200.0 mg/kg/injection, schedule: Q04DX003 (ip), vehicle: saline with Tween-80
[9] = dose: 400.0 mg/kg/injection, schedule: Q04DX003 (ip), vehicle: saline with Tween-80
[10] = dose: 100.0 mg/kg/injection, schedule: Q04DX003 (ip), vehicle: Klucel (hydroxypropylcellulose) (HPC)
[11] = dose: 100.0 mg/kg/injection, schedule: Q01DX009 (ip), vehicle: other
[12] = dose: 200.0 mg/kg/injection, schedule: Q01DX009 (ip), vehicle: other
[13] = dose: 400.0 mg/kg/injection, schedule: Q01DX009 (ip), vehicle: other

Measured: T/C

CC(=O)Nc1ccc(NC(=O)Nc2ccccc2C(F)(F)F)cc1
inactive: [1] 94 % of control and 90 % of control | dose: 100.0 mg/kg/injection, schedule: Q01DX009 (ip), vehicle: carboxymethylcellulose (CMC) 93 % of control and 97 % of control | dose: 100.0 mg/kg/injection, schedule: Q04DX002 (ip), vehicle: carboxymethylcellulose (CMC) 95 % of control and 102 % of control | dose: 100.0 mg/kg/injection, schedule: Q04DX003 (ip), vehicle: carboxymethylcellulose (CMC) 100 % of control and 117 % of control | [2] 94 % of control and 90 % of control | dose: 200.0 mg/kg/injection, schedule: Q01DX009 (ip), vehicle: carboxymethylcellulose (CMC) 94 % of control and 96 % of control | dose: 200.0 mg/kg/injection, schedule: Q04DX002 (ip), vehicle: carboxymethylcellulose (CMC) 96 % of control and 92 % of control | dose: 200.0 mg/kg/injection, schedule: Q04DX003 (ip), vehicle: carboxymethylcellulose (CMC) 95 % of control and 99 % of control | [3] 97 % of control | dose: 400.0 mg/kg/injection, schedule: Q01DX009 (ip), vehicle: carboxymethylcellulose (CMC) 98 % of control and 91 % of control | dose: 400.0 mg/kg/injection, schedule: Q04DX002 (ip), vehicle: carboxymethylcellulose (CMC) 86 % of control | dose: 400.0 mg/kg/injection, schedule: Q04DX003 (ip), vehicle: carboxymethylcellulose (CMC) 91 % of control

O=C1OC(=O)C2C1C1(Cl)CC2(Cl)C(Cl)=C1Cl (stereo not drawn)
inactive: dose: 75.0 mg/kg/injection, schedule: Q01DX009 (ip), vehicle: other 101 % of control | dose: 150.0 mg/kg/injection, schedule: Q01DX009 (ip), vehicle: other 88 % of control

CCS(=O)(=O)CCN1C(=O)C2C3CCC(O3)C2C1=O (stereo not drawn)
inactive: [4] 98 % of control | [5] 95 % of control | [6] 117 % of control

Cn1cnc2cc(N=Cc3ccc(N(CCCl)CCCl)cc3F)ccc21
inactive: [4] 104 % of control | [5] 101 % of control | [6] 97 % of control

O=C1C(=O)c2cc(Br)cc([N+](=O)[O-])c2-c2ccc(Br)cc21
inactive: dose: 50.0 mg/kg/injection, schedule: Q01DX001 (ip), vehicle: carboxymethylcellulose (CMC) 95 % of control | [1] 106 % of control | [2] 101 % of control | [3] 97 % of control

O=C(N/N=C\c1cccc2ccccc12)C(=O)N/N=C/c1cccc2ccccc12
inactive: [7] 88 % of control | [8] 88 % of control | [9] 91 % of control

Clc1ccc(N=CC2CCC=CO2)cc1 (stereo not drawn)
inactive: dose: 222.0 mg/kg/injection, schedule: Q01DX Z (ip), vehicle: saline 92 % of control | dose: 333.0 mg/kg/injection, schedule: Q01DX Z (ip), vehicle: saline 95 % of control | dose: 500.0 mg/kg/injection, schedule: Q01DX Z (ip), vehicle: saline 92 % of control

Cc1cccc(NS(=O)(=O)c2ccc(Cl)cc2)c1C
inactive: dose: 100.0 mg/kg/injection, schedule: Q01DX009 (ip), vehicle: Klucel (hydroxypropylcellulose) (HPC) 109 % of control | [10] 96 % of control | dose: 200.0 mg/kg/injection, schedule: Q01DX009 (ip), vehicle: Klucel (hydroxypropylcellulose) (HPC) 105 % of control | dose: 200.0 mg/kg/injection, schedule: Q04DX003 (ip), vehicle: Klucel (hydroxypropylcellulose) (HPC) 94 % of control | dose: 400.0 mg/kg/injection, schedule: Q01DX009 (ip), vehicle: Klucel (hydroxypropylcellulose) (HPC) 94 % of control | dose: 400.0 mg/kg/injection, schedule: Q04DX003 (ip), vehicle: Klucel (hydroxypropylcellulose) (HPC) 103 % of control

OCC(O)COc1ccc(Cl)cc1 (stereo not drawn)
inactive: dose: 100.0 mg/kg/injection, schedule: Q01DX001 (ip), vehicle: saline with Tween-80 98 % of control | dose: 100.0 mg/kg/injection, schedule: Q01DX009 (ip), vehicle: saline with Tween-80 100 % of control and 110 % of control | [7] 98 % of control and 100 % of control | dose: 200.0 mg/kg/injection, schedule: Q01DX001 (ip), vehicle: saline with Tween-80 105 % of control | dose: 200.0 mg/kg/injection, schedule: Q01DX009 (ip), vehicle: saline with Tween-80 96 % of control and 100 % of control | [8] 96 % of control and 103 % of control | dose: 400.0 mg/kg/injection, schedule: Q01DX001 (ip), vehicle: saline with Tween-80 88 % of control | dose: 400.0 mg/kg/injection, schedule: Q01DX009 (ip), vehicle: saline with Tween-80 94 % of control | [9] 100 % of control

CCC1CCCCC1(O)CC (stereo not drawn)
inactive: dose: 100.0 mg/kg/injection, schedule: Q01DX009 (ip), vehicle: saline 96 % of control | dose: 200.0 mg/kg/injection, schedule: Q01DX009 (ip), vehicle: saline 98 % of control

C[N+](C)(C)C(=Nc1ccccc1)c1ccccc1
inactive: dose: 12.5 mg/kg/injection, schedule: Q01DX009 (ip), vehicle: Klucel (hydroxypropylcellulose) (HPC) 100 % of control | dose: 25.0 mg/kg/injection, schedule: Q01DX009 (ip), vehicle: Klucel (hydroxypropylcellulose) (HPC) 96 % of control | dose: 25.0 mg/kg/injection, schedule: Q04DX003 (ip), vehicle: Klucel (hydroxypropylcellulose) (HPC) 108 % of control | dose: 50.0 mg/kg/injection, schedule: Q01DX009 (ip), vehicle: Klucel (hydroxypropylcellulose) (HPC) 100 % of control and 105 % of control | dose: 50.0 mg/kg/injection, schedule: Q04DX003 (ip), vehicle: Klucel (hydroxypropylcellulose) (HPC) 94 % of control | [10] 100 % of control

COc1cccc2c1C(=O)c1c(O)c3c(c(O)c1C2=O)CC(O)(C(C)=O)CC3OC1CC(N)C(OC2CC(N)C(O)C(C)O2)C(C)O1 (stereo not drawn)
inactive: dose: 0.65 mg/kg/injection, schedule: Q01DX009 (ip), vehicle: saline 111 % of control | dose: 1.25 mg/kg/injection, schedule: Q01DX009 (ip), vehicle: saline 117 % of control | dose: 10.0 mg/kg/injection, schedule: Q01DX009 (ip), vehicle: saline 89 % of control

Cc1cn2ccccc2c[n+]1=O
inactive: dose: 5.0 mg/kg/injection, schedule: Q01DX009 (ip), vehicle: saline sonified 98 % of control | dose: 10.0 mg/kg/injection, schedule: Q01DX009 (ip), vehicle: saline sonified 98 % of control | dose: 20.0 mg/kg/injection, schedule: Q01DX009 (ip), vehicle: saline sonified 87 % of control

CC(C)(C)NC(=O)Oc1ccc2ccccc2c1
inactive: [11] 96 % of control | [12] 102 % of control | [13] 100 % of control

c1c[nH]c(Cc2ccc3ccccc3c2)c1
inactive: [11] 110 % of control | dose: 100.0 mg/kg/injection, schedule: Q04DX003 (ip), vehicle: other 102 % of control | [12] 97 % of control | dose: 200.0 mg/kg/injection, schedule: Q04DX003 (ip), vehicle: other 101 % of control | [13] 110 % of control | dose: 400.0 mg/kg/injection, schedule: Q04DX003 (ip), vehicle: other 102 % of control
